Reference: ChEMBL document CHEMBL1128615, “Design, synthesis and evaluation of novel bismustard cross-linked lexitropsins” (1995)

Key:
Nucleic Acid [1] = test: Compound was evaluated for binding affinity to calf thymus DNA using ethidium displacement assay; assay type: nucleic-acid assay; conditions: Bos taurus
Nucleic Acid [2] = test: Compound was evaluated for binding affinity to alternating poly(dA)-poly(dT) polymer using ethidium displacement assay; assay type: nucleic-acid assay
Nucleic Acid [3] = test: Compound was evaluated for its binding affinity to homo poly(dA-dT) polymer using ethidium displacement assay; assay type: nucleic-acid assay
KB = test: Compound was evaluated for cytotoxicity measured as TD50; assay type: functional; conditions: Homo sapiens, read-out: TD50 (the source's name)
Nucleic Acid [4] = test: Compound was evaluated for its ability of alkylation of DNA; assay type: nucleic-acid assay; conditions: Bos taurus
Nucleic Acid [5] = test: Compound was evaluated for binding affinity to poly(dG-dC) polymer using ethidium displacement assay; assay type: nucleic-acid assay
Nucleic Acid [6] = test: Compound was evaluated for binding affinity to homo poly(dA-dT) polymer using ethidium displacement assay; assay type: nucleic-acid assay
Nucleic Acid [7] = test: Binding affinity to alternating poly(dA)-poly(dT) polymer using ethidium displacement assay; assay type: nucleic-acid assay; conditions: Bos taurus

SMILES	C50 (Nucleic Acid [1]) [µM]	Kb (Nucleic Acid [1]) [M⁻¹]	C50 (Nucleic Acid [2]) [µM]	C50 (Nucleic Acid [3]) [µM]	CC50 (KB) [µM]	Alkylation (Nucleic Acid [4]) [%]	C50 (Nucleic Acid [5]) [µM]	Kb (Nucleic Acid [5]) [M⁻¹]	Kb (Nucleic Acid [6]) [M⁻¹]	Kb (Nucleic Acid [7]) [M⁻¹]
CN(C)CCCNC(=O)c1cc(NC(=O)c2cc(NC(=O)c3ccc(N(CCCl)CCCl)cc3)cn2CCCCCCCCCCn2cc(NC(=O)c3ccc(N(CCCl)CCCl)cc3)cc2C(=O)Nc2cc(C(=O)NCCCN(C)C)n(C)c2)cn1C	2.02	2.74e+06	1.1	1.78	44.2	7.3	1.96	1.04e+07	–	–
CN(C)CCCNC(=O)c1cc(NC(=O)c2cc(NC(=O)c3ccc(N(CCCl)CCCl)cc3)cn2CCCCCCCCCCCCn2cc(NC(=O)c3ccc(N(CCCl)CCCl)cc3)cc2C(=O)Nc2cc(C(=O)NCCCN(C)C)n(C)c2)cn1C	3.17	1.73e+06	1.31	1.06	36.3	–	2.11	9.66e+06	–	–
CN(C)CCCNC(=O)c1cc(NC(=O)c2cc(NC(=O)c3ccc(N(CCCl)CCCl)cc3)cn2CCCCCCCCn2cc(NC(=O)c3ccc(N(CCCl)CCCl)cc3)cc2C(=O)Nc2cc(C(=O)NCCCN(C)C)n(C)c2)cn1C	1.02	5.6e+06	0.535	0.802	> 79.2	7.1	1.64	1.25e+07	–	–
CN(C)CCCNC(=O)c1cc(NC(=O)c2cc(NC(=O)c3ccc(N(CCCl)CCCl)cc3)cn2CCCCCCCCCn2cc(NC(=O)c3ccc(N(CCCl)CCCl)cc3)cc2C(=O)Nc2cc(C(=O)NCCCN(C)C)n(C)c2)cn1C	1.74	3.2e+06	1.31	1.3	> 79.2	6.7	1.97	1.04e+07	–	–
CN(C)CCCNC(=O)c1cc(NC(=O)c2cc(NC(=O)c3ccc(N(CCCl)CCCl)cc3)cn2CCCCCCCCCCCn2cc(NC(=O)c3ccc(N(CCCl)CCCl)cc3)cc2C(=O)Nc2cc(C(=O)NCCCN(C)C)n(C)c2)cn1C	1.63	3.42e+06	1.2	1.1	35.8	12	2.46	8.25e+06	–	–
CN(C)CCCNC(=O)c1cc(NC(=O)c2cc(NC(=O)c3ccc(N(CCCl)CCCl)cc3)cn2C)cn1C	5.1	1.07e+06	0.199	2.85	5	11	11	1.81e+06	3.41e+06	6.06e+06
